Patent publication US9074180B2, “Culture medium containing kinase inhibitors, and uses thereof” (THE UNIVERSITY COURT OF THE UNIVERSITY OF EDINBURGH, priority 2006, dated 2015)

What was measured:
[1] = system: Mouse ES cells; assay: Mouse ES cell self-renewal culture; assay type: cell-based; details: for toxicity to ES cells: GSK-3 inhibitor alone in ES cell culture; for ES cell propagation: single inhibitor in N2B27 medium containing LIF without BMP4; for Oct4/Sox1 marker status: single inhibitor in N2B27 medium without added LIF
Experimental: Mouse ES cells were cultured in the presence of an inhibitor of the FGF receptor and a MEK inhibitor. […] Undifferentiated cultures can be continuously passaged in these conditions while retaining expression of the pluripotency markers Oct4, Nanog, and Rex1.
However, these cells invariably differentiate and/or die after passaging. To reduce potential toxic side effects we used 2.5 fold lower doses and combined the two inhibitors together. […] Viability is lower and population doubling time slower in this two inhibitor (2i) condition than in the presence of ILIF, but differentiation is effectively restrained.
We reasoned that reduced growth of ES cells in 2i media could be due to increased activity of glycogen synthase kinase 3 (GSK-3) consequent to release of inhibitory phosphorylation by Rsk downstream of pErk. […] In serum-free N2B27 medium the differentiation response is reduced and some colonies appear morphologically Undifferentiated for several days.
However, when CHIR99021 is combined with 2i the differentiation response is lost entirely. Furthermore, CHIR99021 modulated the response to 2i such that ES cells grew as compact three dimensional colonies rather than flattened monolayers typically seen in LIF plus serum/BMP or in 2i. Differentiation was negligible in the three inhibitors (3i) and ES cells propagated rapidly. Most importantly undifferentiated colonies grew up at high efficiency after passaging (data not shown).

[2] = system: Human ES cells; assay: Human ES cell culture; assay type: cell-based; details: media supplemented with CHIR99021 and PD184352; data not shown
[3] = system: cyclin-dependent kinases (CDKs); details: at concentrations that completely block GSK-3 activity; cited from earlier work
[4] = system: FGF receptor; assay: Substitution of FGFR antagonist in culture medium; assay type: cell-based; details: substituting for SU5402
Experimental: Suitable concentrations of SU5402 are in the micromolar range, such as from 0.1-20 μM. Some embodiments use concentrations in the range 0.5-10 μM, especially in the range 1-5 μM.

[5] = system: RH ES cells fused to Neural Stem cells (NS TGFP); assay: ES-NS cell fusion, pluripotent hybrid colony formation (reprogramming); assay type: cell-based
Experimental: (FIGS. 1A-1C)—FACS analysis for red and green fluorescence of RH×NS TGFP fusions. (FIG. 1A) Fusion mixture 24 hours after PEG treatment; (FIG. 1B) Purity check of FACS sorted hybrids gated in A. (FIG. 1C) Hybrids sorted in A were plated and the formed colonies were scored as percentage of colonies per plated hybrid. These scores take into account the purity of the FACS sorted cells. (FIG. 1D) Summary of data. (FIG. 1E) Examples of hybrid colony morphology.
RH ES cells, which express constitutively the dsRed fluorescent protein and hygromycin resistance, were fused to foetal derived Neural Stem cells (NS TGFP) that express the fusion protein TauGFP linked via an IRES to puromycin resistance. […] In the control no PD184352 was added. Treated and untreated primary hybrids were sorted 24 hours after fusion and then plated (FIG. 1A-C). Hygromycin and puromycin selection were added to the ES medium 3 days later. […] This effect is likely to be mediated by the increased levels of Nanog in treated RH cells. Accordingly, if Nanog is endogenously expressed then the MEK inhibitor can be used to upregulate Nanog and achieve associated effects, such as increased reprogramming.

[6] = system: Nanog; assay: Nanog levels and Nanog dependence of self-renewal in ES cells; assay type: cell-based; details: data not shown
Description: In fact, these cells differentiated.

**Q.** With `Cn1cc(C2=C(c3ccc(Cl)cc3Cl)C(=O)NC2=O)c2ccccc21` [SB216763] as the compound, how does the “toxicity to ES cells” value [1] read?
**A.** somewhat toxic

**Q.** What does the source list for `Cc1c[nH]c(/C=C2\C(=O)Nc3ccccc32)c1CCC(=O)O` [SU5402]?
**A.** ES cell propagation [1]: sufficient for robust ES cell propagation; Oct4/Sox1 marker status [1]: remain Oct4 positive and Sox1 negative for several days

**Q.** What does the source list for “LIF: Leukaemia Inhibitory Factor, gp130 receptor binding cytokine”?
**A.** propagation of cells on addition of LIF ([1]; media supplemented with CHIR99021 and PD184352, data not shown): further improved propagation; propagation of cells on addition of LIF [2]: further improved propagation

**Q.** With `Cc1c[nH]c(-c2cnc(NCCNc3ccc(C#N)cn3)nc2-c2ccc(Cl)cc2Cl)n1` [CHIR99021] as the compound, how does the differentiation response ([1]; 3 μM, in the presence of serum, even with LIF) read?
**A.** promotes differentiation

**Q.** What about the “persistence of undifferentiated cells after passaging” value ([1]; serum-free N2B27 medium, GSK-3 inhibitor alone) of the same compound?
**A.** Undifferentiated cells do not persist after passaging

**Q.** What about the “cross reaction with CDKs” value [3] of the same compound?
**A.** does not cross react

**Q.** With `CCN(CC)CCCCNc1ncc2cc(-c3cc(OC)cc(OC)c3)c(NC(=O)NC(C)(C)C)nc2n1` [PD173074] as the compound, how does the “fully effective concentration relative to SU5402 (fold lower)” value [4] read?
**A.** about 100 fold

**Q.** With `O=C1NC(=O)C(c2ccccc2[N+](=O)[O-])=C1Nc1ccc(O)c(Cl)c1` [SB415286] as the compound, how does the “toxicity to ES cells” value [1] read?
**A.** somewhat toxic

**Q.** For `O=C(NOCC1CC1)c1ccc(F)c(F)c1Nc1ccc(I)cc1Cl` [PD184352], which “percentage of hybrid colonies formed per plated hybrid” value ([5]; PD184352 treated RH cells (3 μM)) is on record?
**A.** 2.25%

**Q.** And the “enhancement of ES-NS hybrid colony formation” value ([5]; RH cells treated 3 days prior and after fusion with 3 μM PD184352, vs untreated control)?
**A.** 45 fold

**Q.** What about the “ES cell self-renewal in Nanog −/− ES cells” value ([6]; Nanog −/− ES cells) of the same compound?
**A.** failed to show enhancing of ES cell self-renewal

**Q.** And the “levels of Nanog in ES cells” value [6]?
**A.** increases the levels of Nanog

**Q.** And the ES cell propagation [1]?
**A.** sufficient for robust ES cell propagation

**Q.** What about the Oct4/Sox1 marker status [1] of the same compound?
**A.** remain Oct4 positive and Sox1 negative for several days
